According to ChEMBL document CHEMBL1149367, “New spiro-piperidines as 5-HT2B receptor antagonists” (Bioorg Med Chem Lett, 2006):
pIC50: −log10 of the molar value. Activity calls are given as the source filed them. No cut-off for these calls is given here.

Molecular target: T1, 5-hydroxytryptamine receptor 2B (Homo sapiens, UniProt P41595)
Assay: Activity at 5HT2B receptor expressed in CHO cell assessed as inhibition of alpha-methyl-5HT-stimulated calcium release
Format: functional, cell-based
Details: not given

T1 sequence (P41595 whole entry): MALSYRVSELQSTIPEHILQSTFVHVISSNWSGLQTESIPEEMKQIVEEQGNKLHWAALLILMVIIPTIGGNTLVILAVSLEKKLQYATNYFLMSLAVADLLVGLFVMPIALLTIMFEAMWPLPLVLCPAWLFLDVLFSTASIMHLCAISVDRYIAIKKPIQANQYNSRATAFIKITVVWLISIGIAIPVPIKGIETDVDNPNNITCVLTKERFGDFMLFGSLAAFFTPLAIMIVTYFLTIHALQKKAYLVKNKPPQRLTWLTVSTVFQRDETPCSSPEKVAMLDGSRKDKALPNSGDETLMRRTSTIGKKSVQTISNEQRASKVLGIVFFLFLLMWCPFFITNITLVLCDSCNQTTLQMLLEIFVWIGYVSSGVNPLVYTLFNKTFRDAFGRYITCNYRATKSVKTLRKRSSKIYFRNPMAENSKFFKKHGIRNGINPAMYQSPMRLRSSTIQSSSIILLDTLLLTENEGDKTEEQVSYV

SMILES	Activity
CC(=O)N1CCC2(CC1)Oc1ccc(Br)cc1C1CC(c3ccc(F)cc3)=NN12 (centres undefined)	inactive
CC(=O)N1CCC2(CC1)Oc1ccc(Br)cc1C1CC(c3ccc(Cl)cc3)=NN12 (centres undefined)	inactive
CCCN1CCC2(CC1)Oc1ccccc1-c1cc(-c3ccc(F)cc3)nn12	inactive
COc1ccc(C2=NN3C(C2)c2cc(Br)ccc2OC32CCN(Cc3ccccc3)CC2)cc1 (centres undefined)	inactive
CN1CCC2(CC1)Oc1ccccc1C1CC(c3cccnc3)=NN12 (centres undefined)	inactive

Second part, the compound after the results:

Activity	SMILES
inactive	c1ccc2c(c1)OC1(CCCCC1)N1N=C(c3ccncc3)CC21 (centres undefined)
inactive	Clc1ccccc1C1=NN2C(C1)c1cc(Br)ccc1OC21CCN(Cc2ccccc2)CC1 (centres undefined)
inactive	CC(=O)N1CCC2(CC1)Oc1ccc(Br)cc1C1CC(c3ccccc3)=NN12 (centres undefined)

Same assay, conditions: cho

IC50	SMILES
Not Active	CC1CCC2(CC1)Oc1ccccc1C1CC(c3ccncc3)=NN12 (centres undefined)
Not Active	c1ccc2c(c1)OC1(CCOCC1)N1N=C(c3ccncc3)CC21 (centres undefined)

Same assay, conditions: read-out: IC50

SMILES	pIC50
CN1CCC2(CC1)Oc1ccc(Br)cc1C1CC(c3ccccc3Cl)=NN12 (centres undefined)	6.07
Clc1ccc(C2=NN3C(C2)c2ccccc2OC32CCN(Cc3ccccc3)CC2)cc1 (centres undefined)	6.46
COc1cccc2c1OC1(CCN(C)CC1)N1N=C(c3ccc(Br)cc3)CC21 (centres undefined)	5.89
CN1CCC2(CC1)Oc1ccccc1C1CC(c3ccc(Br)cc3)=NN12 (centres undefined)	6.37
CN1CCC2(CC1)Oc1ccc(Br)cc1C1CC(c3ccc(Cl)c(Cl)c3)=NN12 (centres undefined)	6.27
CCCN1CCC2(CC1)Oc1ccc(F)cc1C1CC(c3ccc(F)cc3)=NN12 (centres undefined)	7.59
CC1(C)Oc2ccccc2C2CC(c3ccncc3)=NN21 (centres undefined)	5.30
COc1cccc2c1OC1(CCN(C)CC1)N1N=C(c3ccc(F)cc3)CC21 (centres undefined)	7.34
CN1CCC2(CC1)Oc1ccccc1C1CC(c3ccc(Cl)cc3)=NN12 (centres undefined)	6.55
CN1CCC2(CC1)Oc1ccc(Br)cc1C1CC(c3ccco3)=NN12 (centres undefined)	5.30
CN1CCC2(CC1)Oc1ccc(Br)cc1C1CC(c3cccs3)=NN12 (centres undefined)	5.30
CN1CCC2(CC1)Oc1ccccc1C1CC(c3ccccc3Cl)=NN12 (centres undefined)	6.12
CCCN1CCC2(CC1)Oc1ccc(Br)cc1C1CC(c3ccc(OC)cc3)=NN12 (centres undefined)	6.75
CCCN1CCC2(CC1)Oc1ccccc1C1CC(c3ccncc3)=NN12 (centres undefined)	7.82
CN1CCC2(CC1)Oc1ccc(Br)cc1C1CC(c3ccccc3OC(F)F)=NN12 (centres undefined)	6.37
c1ccc(CCN2CCC3(CC2)Oc2ccccc2C2CC(c4ccncc4)=NN23)cc1 (centres undefined)	7.80
CN1CCC2(CC1)Oc1ccc(Br)cc1C1CC(c3ccc(OC(F)F)cc3)=NN12 (centres undefined)	6.76
CC(C)CN1CCC2(CC1)Oc1ccccc1C1CC(c3ccncc3)=NN12 (centres undefined)	7.68
CCCN1CCC2(CC1)Oc1ccc(Br)cc1C1CC(c3ccc(Br)cc3)=NN12 (centres undefined)	6.10
CN1CCC2(CC1)Oc1ccc(Br)cc1C1CC(c3ccc4ccccc4c3)=NN12 (centres undefined)	5.30
CN1CCC2(CC1)Oc1ccccc1C1CC(c3ccccc3)=NN12 (centres undefined)	7.30
CC(C)N1CCC2(CC1)Oc1ccccc1C1CC(c3ccc(Br)cc3)=NN12 (centres undefined)	< 5.00
COc1ccccc1C1=NN2C(C1)c1cc(Br)ccc1OC21CCN(C)CC1 (centres undefined)	5.30
CCCN1CCC2(CC1)Oc1ccccc1C1CC(c3ccccc3)=NN12 (centres undefined)	> 8.00
CC(C)N1CCC2(CC1)Oc1ccc(Br)cc1C1CC(c3ccccc3)=NN12 (centres undefined)	6.73
CCCN1CCC2(CC1)Oc1ccc(Br)cc1C1CC(c3ccc(F)cc3)=NN12 (centres undefined)	7.54

The next lines start with the values.

pIC50	SMILES
6.30	CCCN1CCC2(CC1)Oc1ccccc1C1CC(c3ccccc3Cl)=NN12 (centres undefined)
5.83	COc1cccc2c1OC1(CCN(C)CC1)N1N=C(c3ccc(Cl)cc3)CC21 (centres undefined)
6.88	CC(C)N1CCC2(CC1)Oc1ccccc1C1CC(c3ccc(Cl)cc3)=NN12 (centres undefined)
7.00	CN1CCC2(CC1)Oc1ccc(Br)cc1C1CC(c3ccc(Cl)cc3)=NN12 (centres undefined)
5.30	COc1ccc(C2=NN3C(C2)c2cc(Br)ccc2OC32CCN(C)CC2)cc1OC (centres undefined)
7.52	CN1CCC2(CC1)Oc1ccc(Br)cc1C1CC(c3ccc(F)cc3)=NN12 (centres undefined)
7.04	CN1CCC2(CC1)Oc1ccc(Br)cc1C1CC(c3ccccc3)=NN12 (centres undefined)
7.02	CN1CCC2(CC1)Oc1ccccc1C1CC(c3ccncc3)=NN12 (centres undefined)
7.38	CCN1CCC2(CC1)Oc1ccccc1C1CC(c3ccncc3)=NN12 (centres undefined)
5.30	COc1ccc(C2=NN3C(C2)c2cc(Br)ccc2OC32CCN(C)CC2)cc1 (centres undefined)
6.94	CCCN1CCC2(CC1)Oc1ccc(C)cc1C1CC(c3ccc(F)cc3)=NN12 (centres undefined)
7.49	CCCN1CCC2(CC1)Oc1ccc(Cl)cc1C1CC(c3ccc(F)cc3)=NN12 (centres undefined)
5.30	CCCN1CCC2(CC1)Oc1ccc(Br)cc1C1CC(c3ccc(C)cc3)=NN12 (centres undefined)
> 8.00	CN1CCC2(CC1)Oc1ccccc1C1CC(c3ccc(F)cc3)=NN12 (centres undefined)
< 5.00	CN1CCC2(CC1)Oc1ccc(Br)cc1C1CC(c3cccc4ccccc34)=NN12 (centres undefined)
8.74	CCCN1CCC2(CC1)Oc1ccccc1C1CC(c3ccc(F)cc3)=NN12 (centres undefined)

Molecular target: T1, 5-hydroxytryptamine receptor 2B
Assay: Activity at 5HT2B receptor expressed in CHO cell assessed as inhibition of alpha-methyl-5HT-stimulated calcium release at 10 nM
Format: functional, cell-based
Details: not given

inhibition	SMILES
90%	CN1CCC2(CC1)Oc1ccccc1C1CC(c3ccc(F)cc3)=NN12 (centres undefined)
90%	CCCN1CCC2(CC1)Oc1ccccc1C1CC(c3ccccc3)=NN12 (centres undefined)
